“Also recorded” adds a separate entry of the source.
Experiments:
[1] = system: colon tumor burden in APCmin mice; experiment: APCmin mouse model: colon tumor count after peptide vaccination; assay type: in vivo; details: for effect on colon tumor burden (tumor count): APCmin mice, vs CFA/IFA control, 50 ug per peptide s.c.; for peptide efficacy, APCmin Colon (Spontaneous): summary table, Yes/No
Method: (§1) Offspring from APCmin were genotyped by PCR for the presence of the Min mutation using primers as follows: Wild-Type: 5′-[…]-3′ (SEQ ID NO: 46), Common 5′-[…]-3′ (SEQ ID NO: 47), Mutant: 5′-[…]-3′ (SEQ ID NO: 48). Both male and female mice testing positive for the Min mutation were included in the study and randomized into groups.
(§2) At 4-6 weeks of age, mice were immunized in CFA/IFA, PBS, and vaccine groups. Each group received subcutaneous injections (100 ul PBS, 50 ul CFA with 50 ul PBS, 50 ug per peptide with 50 ul CFA) once every 7-10 days for a total of three doses and one booster was given 4-5 weeks after the third vaccine. See Table 5 for peptides included in vaccine compositions. CFA was replaced with IFA after the first vaccine. All mice were sacrificed at 14 to 17 weeks of age, the gastrointestinal tracts were collected and tumors counted.

[2] = system: colon tumor burden in AOM mice (Azoxymethane + FVB); experiment: AOM mouse model: colon tumor count after peptide vaccination; assay type: in vivo; details: for effect on colon tumor burden (tumor count): AOM treated FVB mice, vs control group (CFA/IFA; PBS for IGF1R, PRL3, RCAS1); for peptide efficacy, Azoxymethane + FVB (Induced): summary table, Yes/No
Method: AOM mouse in-vivo experiments. At 6 weeks of age, FVB mice were immunized in CFA/IFA, PBS, and vaccine groups. Each group received subcutaneous injections (100 ul PBS, 50 ul CFA with 50 ul PBS, 50 ug per peptide with 50 ul CFA) once every 10-14 days for a total of three doses and a booster was given every 4-5 weeks after the third vaccine. See Table 7 for peptides included in vaccine compositions. CFA was replaced with IFA after the first vaccine. Seven days after the third vaccine, mice were injected with Azoxymethane (AOM) at 10 mg/kg, twice weekly for 6 weeks. At 26 weeks of age, all mice were sacrificed and tumors in the colon were counted.

[3] = system: small bowel tumor burden in APCmin mice; experiment: APCmin survival study: small bowel tumor count at sacrifice; assay type: in vivo; details: boosters every 4-5 weeks, vs CFA/IFA
Method: At 4-6 weeks of age, mice were immunized with CFA/IFA, PBS, and vaccine groups. Each group received subcutaneous injections (100 ul PBS, 50 ul CFA with 50 ul PBS, 50 ug per peptide with 50 ul CFA) once every 7-10 days for a total of three doses and a booster vaccine was given every 4-5 weeks after the third vaccine. See Table 6 for peptides included in vaccine compositions. CFA was replaced with IFA after the first vaccine. […] At sacrifice, small intestines were collected and small bowel tumors counted.

[4] = system: small bowel tumor burden in APCmin mice; experiment: APCmin mouse model: small bowel tumor count after peptide vaccination; assay type: in vivo; details: for effect on small bowel tumor burden (tumor count): APCmin mice, vs CFA/IFA control, 50 ug per peptide s.c.; for peptide efficacy, APCmin Small Bowel (Spontaneous): summary table, Yes/No
Method: as §1, §2

[5] = system: MC-38 cells (murine adenocarcinoma); experiment: MC-38 tumor implant model: tumor volume after peptide vaccination; assay type: in vivo, C57Bl/6 mice; details: for effect on tumor volume: MC-38 tumor implant in C57Bl/6 mice, vs CFA/IFA; for peptide efficacy, MC-38 + B6 (Tumor Implant): summary table, Yes/No
Method: MC-38 tumor implant in-vivo experiments. At 6 weeks of age, mice were immunized in CFA/IFA, PBS, and vaccine groups. Each group received subcutaneous injections (100 ul PBS, 50 ul CFA with 50 ul PBS, 50 ug per peptide with 50 ul CFA) once every 10-14 days for a total of three doses. See Table 9 for peptides included in vaccine compositions. CFA was replaced with IFA for the second and third vaccines. Two weeks after the final vaccine, we subcutaneously implanted 4×10^4 MC-38 cells (murine adenocarcinoma), and measured tumor growth with Vernier calipers 2-3 times per week. Tumor volume was calculated as length×width×height×π/6, which is the standard volume calculation of an ellipsoid. Mice were sacrificed when tumor size in control mice reached greater than 1000 mm^3.

| Substance | effect on colon tumor burden (tumor count) [1] | peptide efficacy, APCmin Colon (Spontaneous) [1] | effect on colon tumor burden (tumor count) [2] | peptide efficacy, Azoxymethane + FVB (Induced) [2] | effect on small bowel tumor burden (tumor count) [3] | effect on small bowel tumor burden (tumor count) [4] | peptide efficacy, APCmin Small Bowel (Spontaneous) [4] | effect on tumor volume [5] | peptide efficacy, MC-38 + B6 (Tumor Implant) [5] |
| --- | --- | --- | --- | --- | --- | --- | --- | --- | --- |
| COX2: peptide vaccine of COX-2 #32, #33, #34, 50 ug per peptide with CFA/IFA (chain 1 FKGFWNVVNNIPFLRN; chain 2 GLVPGLMMYATIWLREH; chain 3 GEVGFQIINTASIQSLIC; with CFA/IFA adjuvant) | does not significantly inhibit; also recorded: lack of COX2 vaccine efficacy | No | vaccine efficacy; also recorded: significantly inhibits | Yes | does not significantly inhibit | significantly inhibits; also recorded: vaccine efficacy | Yes | significantly inhibits | Yes |
| IGF1R: peptide vaccine of IGF1R #1, #2, #3, #4, 50 ug per peptide with CFA/IFA (chain 1 VVTGYVKIRHSHALV; chain 2 TQYAVYVKAVTLTMV; chain 3 LVIMLYVFHRKRNNS; chain 4 GMAYLNANKFVHRDL; with CFA/IFA adjuvant) | lack of IGF1R vaccine efficacy; also recorded: does not significantly inhibit | No | lack of IGF1R vaccine efficacy; also recorded: does not significantly inhibit | No |  | vaccine efficacy; also recorded: significantly inhibits | Yes | does not significantly inhibit | No |
| CDC25B: peptide vaccine of CDC25B #38 (p130-150) and #39 (p405-427), 50 ug per peptide with CFA/IFA (chain 1 QAIQAASRIIRNEQFAIRRFQ; chain 2 VDGKHQDLKYISPETMVALLTGK; with CFA/IFA adjuvant) | does not significantly inhibit; also recorded: lack of CDC25B vaccine efficacy | No | vaccine efficacy; also recorded: significantly inhibits | Yes | does not significantly inhibit | significantly inhibits; also recorded: vaccine efficacy | Yes | significantly inhibits | Yes |

Source: patent US10759836B2, “Cancer vaccine compositions and methods of use thereof” (UNIVERSITY OF WASHINGTON, priority 2014, dated 2020)
